Assay results taken from patent US20230413808A1, “Bioactive complexes” (priority 2020, published 2023).

Columns and labels:
Assay type in all cases: physicochemical
Humectancy assay = conditions: dried at 54° C., then 97% relative humidity at 25° C.; weight after/before x 100
Procedure: The complexes of the interaction assay were used to conduct a humectancy assay. […] After reweighing on an analytical balance, the trays were placed in a climate chamber and stored for at least 2 days at 54° C. or until no further weight change was observed. […] The air tight box was 20 cm×12 cm×7 cm. In the box a chicken wire construct was used to create two levels with 10-20 ml of saturated solution of dipotassium sulfate in a petri dish in a lower level, and the samples in an upper level. Boxes were located into an incubator at 25° C. The boxes were incubated for at least 5 days at 25° C. before use to allow equilibration of temperature and humidity. Hereafter, the trays were reweighed.
The change in humectancy by combining a pesticide and polyelectrolyte is expressed as percent value by multiplying the sample weight after incubation (w2) with 100 divided with the sample weight before incubation (w1) using the following equation: […]
To evaluate the effect of the interaction of the active ingredient and polyelectrolyte on humectancy (synergetic/antagonistic/no effect), the determined Humectancy of the samples containing both active ingredient and polyelectrolyte “Humectancy (blend)” was divided by the theoretical value of Humectancy of the blend provided by respective proportion (% AI; % PE) of each pesticide and polyelectrolyte using the following equation: […]
According to this formula, a positive result of more than 1 is indicative of synergy.
The complexes obtained with the method of WO2010035118, with both ratios of 2:1 and 1:5 (PAA:AI) were tested for humectancy. […] For each sample, the test was carried in triplicate.
For each sample, the test was carried in triplicate.

[1] = Visual interaction of active ingredient with polyelectrolyte PAA
Procedure: (§1) To determine interaction between polyelectrolytes (PE; Table 1) and active ingredients (AI; Table 2) aqueous stock solutions of about 200 g/L of the PE and of the active ingredients were prepared. The polyelectrolytes were diluted in water and stirred on magnetic stirrer for at least 30 minutes until a homogenous clear solution was obtained (ratios and amounts are presented in Table 4). The active ingredients were dissolved in water on magnetic stirrer or, if they weren't water soluble, suspended in water and milled by adding glass beads (1 mm) in a stainless steel metal beaker until they reach a volume-based average particle size below 20 μm (90% of particles below 20 μm), as determined by laser diffraction. After that the mixture was filtered with a sieve to remove glass beads and the filtrate was used for further analysis.
(§2) A polyelectrolyte solution, PAA or chitosan, was added to a 100-150 mL glass beaker, followed by water and an active ingredient solution/suspension. The mixture was stirred for at least 4 hours, and samples were observed after at least 16 hours. The visual observable interactions were divided into five categories (see Table 3). The categories were chosen by comparison to a blank sample containing the same concentration of active ingredient in water but without polyelectrolyte. […] Interactions were studied over a large range of active ingredient to polyelectrolyte ratios, including 10.000:1 (w/w), 1000:1 (w/w), 100:1 (w/w), 10:1 (w/w), 1:1 (w/w), 1:10 (w/w), 1:100 (w/w) and 1:1000) (w/w).

[2] = Visual interaction with polyanion sodium lignosulfonate; conditions: visible complex formation
[3] = Visual interaction of active ingredient with chitosan; design: key to Visual observation category, Active ingredient: chitosan: P: Formation of a precipitate; G: Formation of a gel; C: Formation of a coacervate; V: Increase/decrease of the sediment volume; S: Decrease of solid by increase of solved active ingredient; No visual observable interaction
Procedure: as §1, §2

[4] = ratio active ingredient:PAA 1:1 (w/w)
[5] = ratio active ingredient:PAA 1:10 (w/w)
[6] = ratio active ingredient:PAA 1:100 (w/w)
[7] = ratio active ingredient:PAA 10.000:1 (w/w)
[8] = ratio active ingredient:PAA 1:1000 (w/w)
[9] = ratio active ingredient:PAA 1.000:1 (w/w)
[10] = ratio active ingredient:PAA 100:1 (w/w)
[11] = ratio active ingredient:chitosan 1.000:1 (w/w)
[12] = ratio active ingredient:chitosan 1:1 (w/w)
[13] = ratio active ingredient:chitosan 1:10 (w/w)
[14] = ratio active ingredient:chitosan 1:100 (w/w)
[15] = ratio active ingredient:chitosan 2:1 (w/w)
[16] = ratio active ingredient:chitosan 5:1 (w/w)
[17] = ratio active ingredient:chitosan 10.000:1 (w/w)
[18] = ratio active ingredient:chitosan 10:1 (w/w)
[19] = ratio active ingredient:chitosan 100:1 (w/w)

Structure (SMILES) | Humectancy (Humectancy assay) | Visual observation category, Active ingredient: PAA [1, 5] | Visual observation category, Active ingredient: PAA [1, 6] | Visual observation category, Active ingredient: PAA [1, 7] | Visual observation category, Active ingredient: PAA [1, 8] | Visual observation category, Active ingredient: PAA [1, 9] | Visual observation category, Active ingredient: PAA [1, 10] | Interaction with the polyanion sodium lignosulfonate [2] | also measured
O=[N+]([O-])/N=C1\NCCN1Cc1ccc(Cl)nc1 [Imidacloprid, (NE)-N-[1-[(6-chloropyridin-3-yl)methyl]imidazolidin-2-ylidene]nitramide] | 108.4% | N | N | N | – | – | – | – | Visual observation category, Active ingredient: PAA [1, 4]: N; Visual observation category, Active ingredient: PAA ([1]; ratio active ingredient:PAA 2:1 (w/w)): N; Visual observation category, Active ingredient: PAA ([1]; ratio active ingredient:PAA 5:1 (w/w)): No
CCO[PH](=O)O [Fosetyl Al] | 137.0% | N | N | – | N | – | – | – | Ratios at which active ingredient interacted (w/w; active ingredient:polycation) ([1]; summary of Table 4): from 10.000:1 to 1:1
CNC(=N[N+](=O)[O-])NCc1cnc(Cl)s1 [Clothianidin, 1-[(2-chloro-1,3-thiazol-5-yl)methyl]-3-methyl-2-nitroguanidine] | 120.0% | N | N | N | N | – | – | – | –
O=[PH]([O-])[O-].[Na+].[Na+] [Na2HPO3] | – | N | N | N | – | N | N | did not form a visible complex | –
O=[PH]([O-])[O-].[K+].[K+] [K2HPO3] | – | N | N | N | – | N | N | did not form a visible complex | –
O=C1c2ccccc2C(=O)N1SC(Cl)(Cl)Cl [folpet, N-(trichloromethylthio)phthalimide] | – | – | – | – | – | – | – | – | Interaction with the polycation PAA [1]: interacts over a large range of ratio's
C[C@@H]1C/C=C/C=C/C=C/C=C/[C@H](O[C@@H]2O[C@H](C)[C@@H](O)[C@H](N)[C@@H]2O)C[C@@H]2O[C@](O)(C[C@@H](O)C[C@H]3O[C@@H]3/C=C/C(=O)O1)C[C@H](O)[C@H]2C(=O)O [Natamycin, (1R,3S,5R,7R,8E,12R,14E,16E,18E,20E,22R,24S,25R,26S)-22-[(2R,3S,4S,5S,6R)-4-amino-3,5-dihydroxy-6-methyloxan-2-yl]oxy-1,3,26-trihydroxy-12-methyl-10-oxo-6,11,28-trioxatricyclo[22.3.1.05,7]octacosa-8,14,16,18,20-pentaene-25-carboxylic acid] | – | N | N | – | – | N | – | – | Interaction with chitosan [3]: interact
N.N.O=[PH](O)O [(NH4)2HPO3] | – | N | N | N | – | N | N | did not form a visible complex | –
CCCCCCCCC(=O)O [Pelargonic acid, nonanoic acid] | – | – | N | N | N | – | – | did not form a visible complex | –
COc1c(Cl)ccc(Cl)c1C(=O)O [Dicamba, 3,6-dichloro-2-methoxybenzoic acid] | – | N | N | – | – | – | – | did not form a visible complex | Visual observation category, Active ingredient: PAA ([1]; ratio active ingredient:PAA 100.000:1 (w/w)): N; Visual observation category, Active ingredient: chitosan [3, 11]: P; Visual observation category, Active ingredient: chitosan [3, 12]: N; Visual observation category, Active ingredient: chitosan [3, 13]: N; Visual observation category, Active ingredient: chitosan [3, 14]: N; Visual observation category, Active ingredient: chitosan [3, 15]: N; Visual observation category, Active ingredient: chitosan [3, 16]: P; Visual observation category, Active ingredient: chitosan [3, 17]: N; Visual observation category, Active ingredient: chitosan [3, 18]: P; Visual observation category, Active ingredient: chitosan [3, 19]: P
O=C(O)COc1ccc(Cl)cc1Cl [2,4D, 2-(2,4-dichlorophenoxy)acetic acid] | 212.7% | – | – | N | N | – | – | did not form a visible complex | Visual observation category, Active ingredient: PAA [1, 4]: G/P; Visual observation category, Active ingredient: chitosan [3, 11]: N; Visual observation category, Active ingredient: chitosan [3, 12]: P; Visual observation category, Active ingredient: chitosan [3, 13]: N; Visual observation category, Active ingredient: chitosan [3, 14]: N; Visual observation category, Active ingredient: chitosan [3, 15]: P; Visual observation category, Active ingredient: chitosan [3, 16]: P; Visual observation category, Active ingredient: chitosan [3, 17]: N; Visual observation category, Active ingredient: chitosan [3, 18]: P; Visual observation category, Active ingredient: chitosan [3, 19]: P
O=C(O)[C@@H]1CCCN1 [Proline] | – | N | N | N | N | N | N | – | Visual observation category, Active ingredient: PAA [1, 4]: N; Visual observation category, Active ingredient: PAA ([1]; ratio active ingredient:PAA 10:1 (w/w)): N
